Experimental data published in PubChem BioAssay AID248 (DTP/NCI, 2004).
“And” between values parts separate entries of the source, which are not always exact repeats. Equal values may be shown once. Toxic doses and inconclusive results are not listed. Rule as the data show it: active = T/C of 150% or more; inactive = T/C below 125%.

System: L1210 leukemia ip in BDF1 mice, survival T/C
Experiment: NCI In Vivo Anticancer Drug Screen. Data for tumor model L1210 Leukemia (intraperitoneal) in B6D2F1 (BDF1) mice
Settings: higher = longer survival
Procedure, shortened: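 In this screen, tumor-bearing mice given compound are compared to those given vehicle, and their survival values are reported as a treated-to-control quotient.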

[1] = endpoint: mean survival time, dose: 50.0 mg/kg/injection, schedule: Q04DX003 (ip), vehicle: Klucel (hydroxypropylcellulose) (HPC)
[2] = endpoint: mean survival time, dose: 100.0 mg/kg/injection, schedule: Q04DX003 (ip), vehicle: Klucel (hydroxypropylcellulose) (HPC)
[3] = endpoint: mean survival time, dose: 25.0 mg/kg/injection, schedule: Q01DX009 (ip), vehicle: Klucel (hydroxypropylcellulose) (HPC)
[4] = endpoint: mean survival time, dose: 50.0 mg/kg/injection, schedule: Q01DX009 (ip), vehicle: Klucel (hydroxypropylcellulose) (HPC)
[5] = endpoint: mean survival time, dose: 100.0 mg/kg/injection, schedule: Q04DX002 (ip), vehicle: Klucel (hydroxypropylcellulose) (HPC)
[6] = endpoint: mean survival time, dose: 200.0 mg/kg/injection, schedule: Q04DX002 (ip), vehicle: Klucel (hydroxypropylcellulose) (HPC)
[7] = endpoint: mean survival time, dose: 400.0 mg/kg/injection, schedule: Q04DX002 (ip), vehicle: Klucel (hydroxypropylcellulose) (HPC)
[8] = endpoint: mean survival time, dose: 6.25 mg/kg/injection, schedule: Q01DX009 (ip), vehicle: Klucel (hydroxypropylcellulose) (HPC)
[9] = endpoint: mean survival time, dose: 12.5 mg/kg/injection, schedule: Q01DX009 (ip), vehicle: Klucel (hydroxypropylcellulose) (HPC)
[10] = endpoint: mean survival time, dose: 100.0 mg/kg/injection, schedule: Q01DX009 (ip), vehicle: Klucel (hydroxypropylcellulose) (HPC)
[11] = endpoint: mean survival time, dose: 100.0 mg/kg/injection, schedule: Q04DX003 (ip), vehicle: saline
[12] = endpoint: mean survival time, dose: 200.0 mg/kg/injection, schedule: Q04DX003 (ip), vehicle: saline
[13] = endpoint: mean survival time, dose: 400.0 mg/kg/injection, schedule: Q04DX003 (ip), vehicle: saline

Measured: T/C

Nc1nc2nsnc2nc1N
inactive: endpoint: mean survival time, dose: 3.12 mg/kg/injection, schedule: Q01DX009 (ip), vehicle: water 86 % of control | endpoint: mean survival time, dose: 6.25 mg/kg/injection, schedule: Q01DX009 (ip), vehicle: water 93 % of control | endpoint: mean survival time, dose: 12.5 mg/kg/injection, schedule: Q01DX009 (ip), vehicle: water 90 % of control | endpoint: mean survival time, dose: 25.0 mg/kg/injection, schedule: Q01DX009 (ip), vehicle: water 98 % of control and 106 % of control | endpoint: mean survival time, dose: 50.0 mg/kg/injection, schedule: Q01DX009 (ip), vehicle: water 97 % of control and 91 % of control

CC(=O)Nc1cc(C(=O)Nc2ccc(C)cc2C)ccc1C
inactive: [1] 92 % of control | [2] 92 % of control | endpoint: mean survival time, dose: 200.0 mg/kg/injection, schedule: Q04DX003 (ip), vehicle: Klucel (hydroxypropylcellulose) (HPC) 92 % of control

Clc1nc2ccccc2[nH]1
inactive: endpoint: mean survival time, dose: 100.0 mg/kg/injection, schedule: Q01DX001 (ip), vehicle: saline 114 % of control | endpoint: mean survival time, dose: 200.0 mg/kg/injection, schedule: Q01DX001 (ip), vehicle: saline 105 % of control | endpoint: mean survival time, dose: 400.0 mg/kg/injection, schedule: Q01DX001 (ip), vehicle: saline 110 % of control

CN(C)C(=O)Nc1ccncc1
inactive: endpoint: mean survival time, dose: 25.0 mg/kg/injection, schedule: Q01DX001 (ip), vehicle: saline 97 % of control | endpoint: mean survival time, dose: 25.0 mg/kg/injection, schedule: Q01DX009 (ip), vehicle: saline 98 % of control and 91 % of control | endpoint: mean survival time, dose: 25.0 mg/kg/injection, schedule: Q04DX002 (ip), vehicle: saline with Tween-80 93 % of control and 97 % of control | endpoint: mean survival time, dose: 25.0 mg/kg/injection, schedule: Q04DX003 (ip), vehicle: saline 103 % of control | endpoint: mean survival time, dose: 50.0 mg/kg/injection, schedule: Q01DX001 (ip), vehicle: saline 95 % of control | endpoint: mean survival time, dose: 50.0 mg/kg/injection, schedule: Q01DX009 (ip), vehicle: saline 97 % of control and 88 % of control | endpoint: mean survival time, dose: 50.0 mg/kg/injection, schedule: Q04DX002 (ip), vehicle: saline with Tween-80 98 % of control and 105 % of control | endpoint: mean survival time, dose: 50.0 mg/kg/injection, schedule: Q04DX003 (ip), vehicle: saline 101 % of control

CCOC(=O)NCC(CCN(C)C)(c1cccc2ccccc12)C(C)CC (stereo unspecified)
inactive: [3] 94 % of control | [4] 94 % of control | [1] 105 % of control | [2] 103 % of control

CN(C(=O)c1ccccc1C(=O)c1n[nH]c2ccccc12)c1ccccc1
inactive: endpoint: mean survival time, dose: 50.0 mg/kg/injection, schedule: Q04DX002 (ip), vehicle: Klucel (hydroxypropylcellulose) (HPC) 104 % of control | [5] 97 % of control | [6] 104 % of control

CCCCN(CCCC)CC(O)c1ccc2cc(Cl)cc(Cl)c2n1 (stereo unspecified)
inactive: endpoint: mean survival time, dose: 6.25 mg/kg/injection, schedule: Q01DX009 (ip), vehicle: saline with Tween-80 94 % of control | endpoint: mean survival time, dose: 6.25 mg/kg/injection, schedule: Q04DX003 (ip), vehicle: saline with Tween-80 98 % of control | endpoint: mean survival time, dose: 12.5 mg/kg/injection, schedule: Q01DX009 (ip), vehicle: saline with Tween-80 98 % of control | endpoint: mean survival time, dose: 12.5 mg/kg/injection, schedule: Q04DX003 (ip), vehicle: saline with Tween-80 95 % of control | endpoint: mean survival time, dose: 25.0 mg/kg/injection, schedule: Q01DX009 (ip), vehicle: saline with Tween-80 98 % of control | endpoint: mean survival time, dose: 25.0 mg/kg/injection, schedule: Q04DX003 (ip), vehicle: saline with Tween-80 95 % of control

CN(CCNC(=O)NCCCCCCNC(=O)NCCN(C)c1ccccc1)c1ccccc1
inactive: [5] 105 % of control | [6] 97 % of control | [7] 108 % of control

CC(C)NC(=O)C1C2C=CC(C2)C1C(=O)NC(C)C (stereo unspecified)
inactive: endpoint: mean survival time, dose: 100.0 mg/kg/injection, schedule: Q04DX003 (ip), vehicle: saline with Tween-80 100 % of control | endpoint: mean survival time, dose: 200.0 mg/kg/injection, schedule: Q04DX003 (ip), vehicle: saline with Tween-80 100 % of control | endpoint: mean survival time, dose: 400.0 mg/kg/injection, schedule: Q04DX003 (ip), vehicle: saline with Tween-80 91 % of control

Cc1ccc2nc(C#N)c(C#N)nc2c1
inactive: [8] 106 % of control | [9] 97 % of control | [3] 95 % of control and 89 % of control

O=C(Nc1cc(C(F)(F)F)ccc1Cl)OCC(F)(F)F
inactive: [10] 97 % of control and 104 % of control | [5] 108 % of control and 91 % of control | endpoint: mean survival time, dose: 200.0 mg/kg/injection, schedule: Q01DX009 (ip), vehicle: Klucel (hydroxypropylcellulose) (HPC) 105 % of control and 112 % of control | [6] 103 % of control and 104 % of control | endpoint: mean survival time, dose: 400.0 mg/kg/injection, schedule: Q01DX009 (ip), vehicle: Klucel (hydroxypropylcellulose) (HPC) 94 % of control and 108 % of control | [7] 103 % of control and 107 % of control

O=C(Oc1cc(Cl)c(S(=O)(=O)F)cc1Cl)c1ccccc1Cl
inactive: endpoint: mean survival time, dose: 100.0 mg/kg/injection, schedule: Q04DX003 (ip), vehicle: carboxymethylcellulose (CMC) 88 % of control | endpoint: mean survival time, dose: 200.0 mg/kg/injection, schedule: Q04DX003 (ip), vehicle: carboxymethylcellulose (CMC) 90 % of control | endpoint: mean survival time, dose: 400.0 mg/kg/injection, schedule: Q04DX003 (ip), vehicle: carboxymethylcellulose (CMC) 88 % of control

OC(CCN1CCCC1)(c1ccccc1)C1CCCCC1 (stereo unspecified)
inactive: [8] 104 % of control and 108 % of control | [9] 95 % of control and 97 % of control and 102 % of control | [3] 103 % of control and 105 % of control | endpoint: mean survival time, dose: 25.0 mg/kg/injection, schedule: Q04DX003 (ip), vehicle: Klucel (hydroxypropylcellulose) (HPC) 111 % of control | [4] 100 % of control and 106 % of control (2×) | [1] 101 % of control | [10] 103 % of control and 91 % of control | [2] 92 % of control | endpoint: median survival time, dose: 12.5 mg/kg/injection, schedule: Q01DX009 (ip), vehicle: Klucel (hydroxypropylcellulose) (HPC) 96 % of control | endpoint: median survival time, dose: 25.0 mg/kg/injection, schedule: Q01DX009 (ip), vehicle: Klucel (hydroxypropylcellulose) (HPC) 106 % of control | endpoint: median survival time, dose: 50.0 mg/kg/injection, schedule: Q01DX009 (ip), vehicle: Klucel (hydroxypropylcellulose) (HPC) 103 % of control | endpoint: median survival time, dose: 100.0 mg/kg/injection, schedule: Q01DX009 (ip), vehicle: Klucel (hydroxypropylcellulose) (HPC) 102 % of control

C=CCC1(OC(C)=O)CCN(C)CC1
inactive: endpoint: mean survival time, dose: 75.0 mg/kg/injection, schedule: Q01DX001 (ip), vehicle: saline 113 % of control

CCN(CC)C(=O)CN
inactive: [11] 103 % of control | [12] 100 % of control | [13] 103 % of control

O=C(NO)N/N=C/c1ccccc1
inactive: endpoint: mean survival time, dose: 100.0 mg/kg/injection, schedule: Q01DX001 (ip), vehicle: other 104 % of control | endpoint: mean survival time, dose: 100.0 mg/kg/injection, schedule: Q01DX009 (ip), vehicle: saline with Tween-80 104 % of control | endpoint: mean survival time, dose: 100.0 mg/kg/injection, schedule: Q04DX003 (ip), vehicle: other 113 % of control | endpoint: mean survival time, dose: 200.0 mg/kg/injection, schedule: Q01DX001 (ip), vehicle: other 98 % of control | endpoint: mean survival time, dose: 200.0 mg/kg/injection, schedule: Q01DX009 (ip), vehicle: saline with Tween-80 107 % of control | endpoint: mean survival time, dose: 200.0 mg/kg/injection, schedule: Q04DX003 (ip), vehicle: other 95 % of control | endpoint: mean survival time, dose: 400.0 mg/kg/injection, schedule: Q01DX001 (ip), vehicle: other 98 % of control | endpoint: mean survival time, dose: 400.0 mg/kg/injection, schedule: Q01DX009 (ip), vehicle: saline with Tween-80 110 % of control | endpoint: mean survival time, dose: 400.0 mg/kg/injection, schedule: Q04DX003 (ip), vehicle: other 93 % of control

O=C(COc1ccc(Cl)c(Cl)c1)Nc1ccc[n+](Cc2ccc([N+](=O)[O-])cc2)c1
inactive: [11] 95 % of control | [12] 95 % of control | [13] 104 % of control

CC(=O)NC(C=O)C(OC(C)=O)C(OC(C)=O)C(COC(C)=O)OC(C)=O (stereo unspecified)
inactive: endpoint: mean survival time, dose: 100.0 mg/kg/injection, schedule: Q04DX002 (ip), vehicle: saline with Tween-80 100 % of control | endpoint: mean survival time, dose: 200.0 mg/kg/injection, schedule: Q04DX002 (ip), vehicle: saline with Tween-80 107 % of control | endpoint: mean survival time, dose: 400.0 mg/kg/injection, schedule: Q04DX002 (ip), vehicle: saline with Tween-80 96 % of control
